Tested on: conscious male spontaneously hypertensive rats (SHR)
Test: anti-hypertensive response: area under the control group blood pressure curve (mean arterial blood pressure, indwelling catheter) in conscious male spontaneously hypertensive rats
Assay type: in vivo
Conditions: cromakalim 0.075 mg/kg po, n=10
Protocol: Mean arterial blood pressures were measured from an indwelling catheter as described by Buckingham 1976 J. Pharm. Pharmac Vol. 28, pp 459-461. 1. Calculation of area under the control group blood pressure curve (AUC). Group mean arterial blood pressure values were calculated as % change from the pretreatment baseline. For each drug treatment group the area under the control group blood pressure curve was calculated using a trapezoidal method. […] Predicted AUC values were arrived at by combining values for each treatment given alone.

SMILES: CC1(C)Oc2ccc(C#N)cc2[C@@H](N2CCCC2=O)[C@@H]1O (racemic) [Cromakalim, (±)-6-cyano-3,4-dihydro-2,2-dimethyl-trans-4-(2-oxo-1-pyrrolidinyl)-2H-benzo[b]pyran-3-ol]
- AUC (0-2 h) (0-2 h): 1941
- AUC (0-4 h) (0-4 h): 2981

From US5032591A, “Pharmaceutical preparations” (Beecham Group p.l.c., priority 1988, dated 1991)
